Each structure is given as a SMILES string.

The values that follow come from ChEMBL document CHEMBL6153088, “Discovery of 1,4-Disubstituted Cyclohexene Analogues as Selective GPR119 Agonists for the Treatment of Type 2 Diabetes” (J Med Chem, 2025).

Test [1] deals with Mus musculus. Kind of test: Anti-diabetic activity in overnight fasted male C57BL/6J mouse assessed as reduction in blood glucose level by measuring reduction in AUC […] at 20 mg/kg pre-administered with compound for 30 min followed by glucose bolus addition and measured upto 120 min by oral glucose tolerance test relative to control. Type of test: functional. Set-up: scale not given: the % may be the effect or the level left. The settings on record: time <= 150 min, 2.5 h.

Test [2] addresses T1, Glucose-dependent insulinotropic receptor (Homo sapiens, UniProt Q8TDV5).
T1 sequence (Q8TDV5 whole entry): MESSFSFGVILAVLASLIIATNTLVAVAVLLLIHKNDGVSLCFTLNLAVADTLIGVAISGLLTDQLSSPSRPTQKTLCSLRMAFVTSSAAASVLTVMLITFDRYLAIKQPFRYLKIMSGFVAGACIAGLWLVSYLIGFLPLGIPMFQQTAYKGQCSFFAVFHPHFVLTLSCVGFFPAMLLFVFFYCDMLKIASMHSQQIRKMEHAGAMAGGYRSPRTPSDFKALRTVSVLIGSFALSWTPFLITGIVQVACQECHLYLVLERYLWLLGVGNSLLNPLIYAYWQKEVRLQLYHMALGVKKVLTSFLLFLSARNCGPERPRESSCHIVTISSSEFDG
Kind of test: Agonist activity at human GPR119 expressed in CHO cells assessed as cAMP level measured after 90 mins by HTRF based assay. It is filed as functional, cell-based. In general terms: Cyclic AMP is a second messenger, typically raised through Gs and lowered through Gi signalling.

In test [3] the target is T1, Glucose-dependent insulinotropic receptor. Kind of test: Agonist activity at human GPR119. It is filed as functional.
In test [4] the test system is Mus musculus. Kind of test: Anti-diabetic activity in overnight fasted male C57BL/6J mouse assessed as reduction in blood glucose level by measuring reduction in AUC […] at 10 mg/kg once a day pre-administered with compound for 30 min followed by glucose bolus addition and measured upto 120 min by oral glucose tolerance test relative to control. The arrangement: scale not given: the % may be the effect or the level left. The settings on record: time <= 150 min, 2.5 h. It is filed as functional.

Test [5] deals with Mus musculus. The experiment in a line: Anti-diabetic activity in overnight fasted male C57BL/6J mouse assessed as reduction in blood glucose level by measuring reduction in AUC […] at 30 mg/kg pre-administered with compound for 30 min followed by glucose bolus addition and measured upto 120 min by oral glucose tolerance test relative to control. Type of test: functional. Set-up: scale not given: the % may be the effect or the level left. The settings on record: time <= 150 min, 2.5 h.

The test system of test [6] is Mus musculus. The experiment in a line: Anti-diabetic activity in male FATZO mouse assessed as reduction in blood glucose level by measuring reduction in AUC […] at 30 mg/kg pre-administered with compound for 30 min followed by glucose bolus addition and measured upto 120 min by oral glucose tolerance test relative to control. The arrangement: scale not given: the % may be the effect or the level left. The following applies: time <= 150 min, 2.5 h. Type of test: functional.

For test [7], the system named is Mus musculus. Kind of test: Anti-diabetic activity in overnight fasted male C57BL/6J mouse assessed as reduction in blood glucose level administered twice a day preincubated with compound for 30 min followed by glucose bolus addition and measured upto 120 min by oral glucose tolerance test. Type of test: functional, organism-based. The following applies: dose 3-30 mg/kg, time <= 150.0 min.

Test [8] has as its target T1, Glucose-dependent insulinotropic receptor. Kind of test: Agonist activity at human GPR119 expressed in CHO-K1 cells co-transfected with pcDNA3.1 assessed as increase in cAMP level. Type of test: functional, cell-based.
In test [9] the test system is Mus musculus. The experiment in a line: Anti-diabetic activity in male FATZO mouse assessed as reduction in blood glucose level by measuring AUC […] at 300 mg/kg once a day pre-administered with compound for 30 min followed by glucose bolus addition and measured upto 120 min by oral glucose tolerance test relative to control. It is filed as functional. Set-up: scale not given: the % may be the effect or the level left. The following applies: time <= 150 min, 2.5 h.

The term EC50 denotes the concentration giving half of the maximal effect. Turning to `CCc1cnc(N2CCC(COc3ccc(C4=CCC(C(=O)N5CCC[C@H]5CO)CC4)cc3)CC2)nc1` (stereo partly specified), the Activity with Mus musculus [1] was 9.8%. Also, the EC50 in test [2] worked out at 31 nM.
In the case of `CCOC(=O)C1CC=C(c2ccc(OCC3CCN(C(=O)OC(C)(C)C)CC3)cc2)CC1` (stereo unspecified), the EC50 in test [2] came to 53 nM.
In the case of `CN(CCO)C(=O)C1CC=C(c2ccc(OCC3CCN(C(=O)OC(C)(C)C)CC3)cc2)CC1` (stereo unspecified), the Activity in the test on Mus musculus [1] is 6.8%. The EC50 in test [2] was determined as 14 nM.
`CCc1cnc(N2CCC(COc3ccc(C4=CCC(C(=O)N5CCC(=O)C5)CC4)cc3)CC2)nc1` (stereo unspecified): the Activity in the test on Mus musculus [1] stood at 12.7%. Moreover, the EC50 in test [2] is 12 nM.
With `CC(C)c1noc(N2CCC(COc3ccc(C4=CCC(C(=O)N5CCC5)CC4)cc3)CC2)n1` (stereo unspecified), the Activity in the test on Mus musculus [1] is reported as 4.2%. Also, the EC50 in test [2] was determined as 41 nM.
In the case of `CCc1cnc(N2CCC(COc3ccc(C4=CCC(C(=O)N5CC[C@H](CO)C5)CC4)cc3)CC2)nc1` (stereo partly specified), the Activity with Mus musculus [1] is 13%. In [2], the EC50 stood at 36 nM.
In test [3], `CCc1cnc(N2CCC(CCCOc3cc(F)c(-c4noc(C(C)C)n4)c(F)c3)CC2)nc1` displayed an EC50 of 14 nM.
In the case of `N[C@@H](CC(=O)N1CCn2c(nnc2C(F)(F)F)C1)Cc1cc(F)c(F)cc1F` [SITAGLIPTIN], the Activity in the test with Mus musculus [4] stood at 20.5%; with Mus musculus [5], 22%; with Mus musculus [6], 17.5%.
Regarding `CCc1cnc(N2CCC(COc3ccc(C4=CCC(C(=O)N5CCC[C@@H]5CO)CC4)cc3)CC2)nc1` (stereo partly specified), the Activity was 16.6% in the test on Mus musculus [1], “Dose-dependent-effect” in the test on Mus musculus [7] and 25.8% in the test on Mus musculus [5]. Moreover, in test [2], the EC50 turned out to be 6.8 nM.
Regarding `CCc1cnc(N2CCC(COc3ccc(C4=CCC(C(=O)N5CCC5)CC4)cc3)CC2)nc1` (stereo unspecified), the Activity in the test with Mus musculus [1] worked out at 14.6%. The EC50 in [2] was 38 nM.
`CC(C)c1noc(N2CCC(COc3ccc(C4=CCC(C(=O)N5CCOCC5)CC4)cc3)CC2)n1` (stereo unspecified): in the test on Mus musculus [1], the Activity was 4.1%. The EC50 in test [2] came out at 18 nM.
For `CC(C)c1noc(N2CCC(COc3ccc(C4=CCC(C(=O)N5CCCC5)CC4)cc3)CC2)n1` (stereo unspecified), the Activity in the test with Mus musculus [1] is listed as 5.9%. Further, the EC50 in test [2] came out at 55 nM.
As to `CC(C)(C)OC(=O)N1CCC(COc2ccc(C3=CCC(C(=O)NCC(F)F)CC3)cc2)CC1` (stereo unspecified), in the test with Mus musculus [1], the Activity was 10.6%. In addition, the half-maximal effective concentration (EC50) in test [2] was determined as 34 nM.
On to `CCc1cnc(N2CCC(COc3ccc(C4=CCC(C(=O)N5CCCC5)CC4)cc3)CC2)nc1` (stereo unspecified), for which the Activity in the test on Mus musculus [1] is given as 15.9%. Besides, the EC50 in [2] came to 27 nM.
Turning to `CCc1cnc(N2CCC(COc3ccc(C4=CCC(C(=O)N5CC[C@@H](CO)C5)CC4)cc3)CC2)nc1` (stereo partly specified), in the test on Mus musculus [1], the Activity is 7.6%. Moreover, the EC50 in [2] was 43 nM.
For `CCc1cnc(N2CCC(COc3ccc(C4=CCC(C(=O)N5CC(O)C5)CC4)cc3)CC2)nc1` (stereo unspecified), in that order: 12.3% and 70 nM.
As to `CC(C)(C)OC(=O)N1CCC(COc2ccc(C3=CCC(C(=O)NC4CC4)CC3)cc2)CC1` (stereo unspecified), in [2], the EC50 is 40 nM.
On to `CC[C@@H](Oc1ccc(C(=O)C2CC2)cc1)c1nc(-c2ccc(C(=O)N[C@H](C)CO)c(F)c2)no1` [FIRUGLIPEL], for which the EC50 in [8] turned out to be 51 nM.
Consider `CC(C)(C)OC(=O)N1CCC(COc2ccc(C3=CCC(C(=O)N4CCOCC4)CC3)cc2)CC1` (stereo unspecified), for which, in the test with Mus musculus [1], the Activity is on record as 10.2%. The EC50 in [2] came to 13 nM.
Consider `CCc1cnc(N2CCC(COc3ccc(C4=CCC(C(=O)N5CC[C@H](O)C5)CC4)cc3)CC2)nc1` (stereo partly specified), for which, in the test with Mus musculus [1], the Activity is listed as 7.2%. Further, the EC50 in test [2] is 26 nM.
`CN(C)C(=N)NC(=N)N` [METFORMIN]: in the test on Mus musculus [9], the Activity was 25%.
In test [3], `CCOC(=O)c1ccc(-c2ccc(OCC3CCN(C(=O)OC(C)(C)C)CC3)cc2)cc1` came in with an EC50 of 120 nM.
Turning to `CCc1cnc(N2CCC(COc3ccc(C4=CCC(C(=O)N5CC[C@@H](O)C5)CC4)cc3)CC2)nc1` (stereo partly specified), in the test with Mus musculus [1], the Activity is listed as 13.5%. Further, the concentration giving a half-maximal response (EC50) in test [2] is 13 nM.
Turning to `CC(C)(C)OC(=O)N1CCC(COc2ccc(C3=CCC(C(=O)NCCO)CC3)cc2)CC1` (stereo unspecified), the Activity in the test with Mus musculus [1] was 6.7%. Moreover, the EC50 in test [2] worked out at 140 nM.
As for `CCc1cnc(N2CCC(COc3ccc(C4=CC[C@@H](C(=O)N5CCC[C@@H]5CO)CC4)cc3)CC2)nc1`, the EC50 in [2] turned out to be 32 nM.
Take `CCOC(=O)C1CCC(c2ccc(OCC3CCN(C(=O)OC(C)(C)C)CC3)cc2)CC1` (stereo unspecified): it took 370 nM to reach a half-maximal effect in [3] (EC50).
Take `CCc1cnc(N2CCC(COc3ccc(C4=CCC(C(=O)N5CCC(F)(F)C5)CC4)cc3)CC2)nc1` (stereo unspecified): the Activity in the test on Mus musculus [1] was found to be 12.6%. Also, the EC50 in [2] was 10 nM.
As to `CCc1cnc(N2CCC(COc3ccc(C4=CCC(C(=O)N5CCOCC5)CC4)cc3)CC2)nc1` (stereo unspecified), in the test with Mus musculus [1], the Activity is recorded as 15.7%. In addition, in [2], the EC50 is 13 nM.
